For this test, the target named is T1, polycystin-2 (Homo sapiens, UniProt Q13563, C437S/C632S).
T1 construct: expressed in transfected cells
T1 sequence (Q13563 1-968 C437S/C632S): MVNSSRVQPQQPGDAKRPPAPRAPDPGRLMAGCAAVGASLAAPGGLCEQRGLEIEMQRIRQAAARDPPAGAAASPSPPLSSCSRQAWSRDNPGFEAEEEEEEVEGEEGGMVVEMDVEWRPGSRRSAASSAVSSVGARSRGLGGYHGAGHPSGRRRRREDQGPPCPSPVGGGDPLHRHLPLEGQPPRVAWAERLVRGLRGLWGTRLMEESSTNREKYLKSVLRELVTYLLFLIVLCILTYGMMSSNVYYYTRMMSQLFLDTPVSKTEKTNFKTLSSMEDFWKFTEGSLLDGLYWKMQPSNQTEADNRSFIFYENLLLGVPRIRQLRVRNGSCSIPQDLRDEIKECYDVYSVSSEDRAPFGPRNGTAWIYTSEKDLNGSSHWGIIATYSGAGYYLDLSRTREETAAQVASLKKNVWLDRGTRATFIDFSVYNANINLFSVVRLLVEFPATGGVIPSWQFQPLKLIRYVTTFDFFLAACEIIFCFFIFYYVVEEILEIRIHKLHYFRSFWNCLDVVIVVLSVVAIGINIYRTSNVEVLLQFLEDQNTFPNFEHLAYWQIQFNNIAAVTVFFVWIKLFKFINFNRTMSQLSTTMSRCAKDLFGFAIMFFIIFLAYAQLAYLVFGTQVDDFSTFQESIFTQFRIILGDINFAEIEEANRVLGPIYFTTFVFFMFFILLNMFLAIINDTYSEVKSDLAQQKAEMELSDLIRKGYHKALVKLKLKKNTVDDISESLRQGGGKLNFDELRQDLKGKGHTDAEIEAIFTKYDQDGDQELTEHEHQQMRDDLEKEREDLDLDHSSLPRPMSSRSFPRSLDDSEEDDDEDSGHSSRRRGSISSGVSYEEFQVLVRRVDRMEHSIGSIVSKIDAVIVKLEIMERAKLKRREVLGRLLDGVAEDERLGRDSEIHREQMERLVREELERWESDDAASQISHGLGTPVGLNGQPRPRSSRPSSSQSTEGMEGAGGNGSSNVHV
The class given is cell-based. The conditions noted are these: C437S:C632S double mutant. An excerpt: Generation of HEK PKD2^Null cells line and the stable expression PKD2 variants. To generate the HEK PKD2^Null cell lines, we used a CRISPR/Cas9 gene editing kit available from Addgene (kit 1000000055). HEK 293 cells were electro-transfected with sgRNAs (caccg[…] and aaac[…]c) with the All-in-one Cas9 plasmid. […] Cells generated from single cell clones were selected after 4 weeks of expansion in a 96-wells plate. […] To generate the WT and variant PKD2 GFP or mCherry C-terminally tagged variant cell lines, the hPKD gene was subcloned into lentiviral pLVX-mcherry-N1 (Clontech) or pLVX-GFP-N1 (Clontech) vector using the Gibson assembly method. A linker encoding for six glycine residues was added between the PKD2 gene and the C-terminal tags, and missense variants were generated using standard, site-directed mutagenesis. The third-generation lentiviral packaging plasmids used for stable expression contained: pMDLg/pRRE (Addgene), […] pRSV-Rev (Addgene), and envelope expressing plasmid pMD2.G (Addgene). LentiX-293T cells (Takara) were transfected with polyethylineimine (Polysciences) at a 4:1:1:1 ratio of the transgene and viral packaging constructs. Supernatants were collected 48 and 72 hours post transfection and filtered through a 0.45 μm syringe filter. Lentiviral supernatant was concentrated 100 times using 1 volume of PEG-it (System Biosciences) virus precipitation solution and 4 volume of lentivirus-containing supernatant. The PEG-it and supernatant mixture were kept at 4 degrees for 24 hours and centrifuged at 1500 rpm for 30 minutes. The pellet containing lentivirus was resuspended with 1/100th volume of PBS of the original supernatant volume. HEK cells were infected with the lentivirus supernatant; PKD2-GFP or PKD2-mCherry expression was selected using culture media containing puromycin (2 μg/ml) for 30 to 90 days. Cells were then fluorescence-activated cell sorted (BD FacsMelody) at 5000 to 10,000 counts per minute to enrich for the transgene expression. Stable cell lines were cultured in Dulbecco's modified essential medium (DMEM) supplemented with 10% fetal bovine serum (FBS) and 100 units/ml penicillin, 100 units/ml streptomycin and 1 μg/ml puromycin selection antibiotic.
Electrophysiology. Ciliary ion currents were recorded using borosilicate glass electrodes polished to resistances of 14-22 MΩ using the cilium patch method previously described^32. Whole cell electrodes used to measure poly cystin-2L1 currents were fire polished to 1.5-4 MΩ resistances. Unless otherwise stated, whole cilia ionic currents were recorded in symmetrical [Na^+]. The pipette standard internal solution contained (in mM): 90 NaMES, 10 NaCl, 10 HEPES, 10 Na4-BAPTA (Glycine, N, N′-[1,2-ethanediylbis(oxy-2,1-phenylene)]bis[N-(carboxymethyl)]-,tetrasodium); pH was adjusted to 7.3 using NaOH. Standard bath solution contained 140 NaCl, 10 HEPES, 1.8 CaCl2); pH 7.4. All solutions were osmotically balanced to 295 (±6) mOsm with mannitol. Extracellular solutions containing TCEP and GSH were used within six hours of formulation. Data were collected using an Axopatch 200B patch clamp amplifier, Digidata 1440A, and pClamp 10 software. Whole-cilium and excised patch currents were digitized at 25 kHz and low-pass filtered at 10 kHz. In the whole cilium configuration, the holding potential was −60 mV and then depolarized using a 400 ms voltage ramp from −100 mV to 100 mV. The whole cell recordings of polycystin-2L1 currents were either activated by the same ramp protocol or by 100 ms depolarizations to 100 mV from a −100 mV holding potential.

Turning to `N[C@@H](CCC(=O)N[C@@H](CS)C(=O)NCC(=O)O)C(=O)O` [GSH, reduced glutathione], the “Effect on C437S:C632S double mutant channel cilia current” value is on record as “retained its sensitivity”.
Regarding `O=C(O)CCP(CCC(=O)O)CCC(=O)O` [TCEP, tris-2-carboxyethyl phosphine], the “Effect on C437S:C632S double mutant channel cilia current” value is “retained its sensitivity”.

These data come from patent publication US20210369677A1, “SMALL MOLECULE ACTIVATORS OF POLYCYSTIN-2 (PKD2) AND USES THEREOF” (Northwestern University, priority 2020, published 2021).
